Measured values taken from patent US10732172B1, “Methods, systems, and compositions for determining blood clot formation, and uses thereof” (President and Fellows of Harvard College, priority 2015, dated 2020).
“Also recorded” adds a separate entry of the source.

What was measured:
Format in all cases: cell-based, human
platelets [1] = experiment: Platelet coverage in collagen-coated microfluidic device, whole blood perfusion; details: blood with different doses of abciximab; shear 750 sec^-1
Method: (§1) By way of example, a microfluidic device is fabricated using photolithography followed by soft lithography with polydimethysiloxane (“PDMS”). According to this example, six microfluidic devices are placed on a single PDMS mold of the size of a standard glass slide, e.g., 75×25 millimeters (“mm”). The microfluidic devices are first exposed to oxygen plasma for 30 seconds using, for example, a PE-100 benchtop plasma system from Plasma Etch. Then, the microfluidic devices are treated with 1% (3-aminopropyl)-trimethoxysilane (“APTMS”), from Sigma, in 100% anhydrous ethanol for ten minutes. After subsequent rinsing with 70% and 100% ethanol, the microfluidic devices are dried and type I collagen from rat tail, e.g., 100 micrograms/milliliter (“μg/ml) from Corning, is introduced in microchannels of the microfluidic devices.
500 microliters (“μL”) of whole blood are pipetted into a fluid reservoir fitted to one end of a microchannel. Platelets are labeled with human CD41-PE antibody (e.g., 10 μL/mL from Invitrogen) that is directly added to the blood samples and incubated at room temperature for 10 minutes. […]
(§2) Platelets are visualized using time-lapse fluorescence imaging (e.g., 20×, NA 0.4). A time series of a 10-frame panorama (e.g., 6 mm long×0.665 mm wide region of a microchannel), at a lapse of every 30 seconds is recorded. […]

platelets [2] = experiment: Light transmission aggregometry (LTA) with ADP or collagen as agonist; details: blood treated ex vivo with abciximab, all doses; ADP 10 μM or collagen 2 μg/mL
Method: The LTA is performed in accordance with manufacturer instructions. For example, the LTA uses adenosine diphosphate (“ADP”) 10 μM and collagen 2 μg/mL from Chrono-Log.
Blood from healthy donors was treated ex vivo with abciximab or used untreated. These samples as well as clinical blood samples from subjects were centrifuged at 290 g for 10 min (no brake applied) to collect platelet rich plasma (PRP). To obtain a reference solution for each sample, PRP was centrifuged at high speed to pellet platelets (1,000 g, 10 min) and collect platelet poor plasma (PPP). CaCl2 was added to each sample at a final concentration of 1 mM to recalcify plasma before each run. Cifuni et al. “CalDAG-GEFI and protein kinase C represent alternative pathways leading to activation of integrin alphaIIbeta3 in platelets.” Blood 112, 1696-1703 (2008). LTA has then been performed at 37° C. under magnetic stirring using a Chrono-Log Corporation instrument.

platelets [3] = experiment: Platelet coverage on TNF-α pretreated, fixed (chemopreserved) endothelium in microfluidic device, whole blood perfusion
Method: as §1
The microfluidic devices are left overnight at 37° C. in a 5% carbon dioxide (“CO2”) incubator, after which they are rinsed with Endothelial Growth Medium-2 (“EGM-2”) from Lonza. Human Umbilical Vein Endothelial Cells (“HUVEC”) from a mixed donor, by Lonza, are kept in culture and suspended at 12.5 million cells/milliliter (“mL”) in EGM-2, after confluence. The suspension is introduced into the collagen-coated microchannels, after which the microfluidic devices are incubated upside down for 20 minutes. A fresh HUVEC suspension is then introduced in the microchannels, after which the microfluidic devices are incubated for eight hours to promote cell attachment across the channel. The microchannels are, then, rinsed with EGM-2, sometimes containing a freshly prepared solution of tumor necrosis factor (“TNF-α”), which is a recombinant from E. coli from Sigma. […]
as §2

Substance: abciximab
- platelet coverage on collagen-coated microfluidic device (platelets [1]): insignificant decrease in platelet adhesion and aggregation; also recorded: small suppressive effect on platelet adhesion; also recorded: poor sensitivity
- platelet aggregation by light transmission aggregometry (platelets [2]): no aggregation is observed; also recorded: virtually complete inhibition of platelet aggregation; also recorded: no platelet aggregability
- abciximab concentration at which optimal effects on platelet adhesion are observed (platelets [3]; fixed endothelium pretreated with TNF-α 5 ng/mL): ≥ 10 µg/mL
- difference in platelet inhibition between 10 μg/ml and 100 μg/ml (platelets [3]; fixed endothelium pretreated with TNF-α 5 ng/ml): insignificant
- platelet coverage (platelet adhesion) on fixed endothelium (platelets [3]; healthy donor whole blood with abciximab 0-100 μg/mL, endothelium pretreated with TNF-α 5 ng/mL then fixed, shear 750 s^-1): decreases with increase in abciximab drug concentration; also recorded: dose-dependent inhibition of platelet adhesion; also recorded: significant dose-dependent platelet inhibition
